Laboratory results published in EP4332093A1, “SALT CONTAINING PIPERAZINE POLYCYCLIC DERIVATIVE, CRYSTAL FORM THEREOF, PREPARATION METHOD THEREFOR, AND USE THEREOF” (Shanghai Hansoh Biomedical Co., Ltd., priority 2021, dated 2022).
≈ marks a conversion by molar mass, not a printed value. Where two headings read alike, the source gives them in different places.

Assays:
[1] = biological target: T1, D3 receptor (Homo sapiens, UniProt P35462); assay: cAMP content in cells stably expressing D3 receptors (CHO-D3, forskolin, HTRF); format: cell-based
T1 construct: expressed in transfected cells
T1 sequence (P35462 whole entry): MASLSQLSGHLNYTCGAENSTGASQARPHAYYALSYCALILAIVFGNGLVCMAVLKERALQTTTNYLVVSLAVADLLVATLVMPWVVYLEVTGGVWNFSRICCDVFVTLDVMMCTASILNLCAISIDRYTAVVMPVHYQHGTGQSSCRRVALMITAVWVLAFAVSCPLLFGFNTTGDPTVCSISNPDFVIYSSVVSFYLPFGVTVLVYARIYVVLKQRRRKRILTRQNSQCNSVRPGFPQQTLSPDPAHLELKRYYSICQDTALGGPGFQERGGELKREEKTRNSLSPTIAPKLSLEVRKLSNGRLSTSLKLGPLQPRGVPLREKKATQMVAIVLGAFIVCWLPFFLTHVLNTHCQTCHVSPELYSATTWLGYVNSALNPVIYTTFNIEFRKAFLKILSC
Protocol: Determination of the effect of the compounds of the present invention on cAMP content in cells stably expressing D3 receptors
To determine the activation effect of the compounds on D3 receptor.
• 1. Preparation of the buffer: 1* HBSS + 20mM HEPES + 0.1% BSA + 500 µM IBMX. Complete medium: Ham's F12K + 10% fetal bovine serum +1* penicillin-streptomycin + 400 µg/mL G418. • 2. CHO-D3 cells were cultured in the complete medium at 37°C, 5% CO2. After TrypLE digestion, the cells were resuspended in the experimental buffer, and seeded into a 384-well cell culture plate at a seeding density of 8000 cells per well. • 3. The experimental buffer (1*HBSS, 0.1% BSA, 20 mM HEPES and 500 µM IBMX) was prepared. The compound was diluted with the buffer. 2.5 µL of the compound solution was added to each well, and the plate was incubated at 37°C for 10 minutes. The forskolin was diluted to 8 µM (8*) with the experimental buffer. 2.5 µL of the diluted 8* forskolin was added, and the plate was incubated at 37°C for 30 minutes. cAMP-d2 and Anti-cAMP-Eu^3+ were thawed, and diluted by 20-fold with the lysis buffer. 10 µL of cAMP-d2 was added to the experimental well, followed by the addition of 10 µL of Anti-cAMP-Eu^3+. The reaction plate was centrifuged at 200 g for 30 s at room temperature, and left to stand at 25°C for 1 h. Data was collected using Envision.

[2] = biological target: 5-HT2A receptor (Homo sapiens, UniProt P28223); assay: Calcium ion mobility in cells stably expressing 5-HT2A receptors (Flp-In-CHO-5HT2A, FLIPR); format: cell-based; design: expressed in transfected cells; conditions: Flp-In-CHO-5HT2A stable pool, 5HT stimulation
Sequence of 5-HT2A receptor (P28223 whole entry): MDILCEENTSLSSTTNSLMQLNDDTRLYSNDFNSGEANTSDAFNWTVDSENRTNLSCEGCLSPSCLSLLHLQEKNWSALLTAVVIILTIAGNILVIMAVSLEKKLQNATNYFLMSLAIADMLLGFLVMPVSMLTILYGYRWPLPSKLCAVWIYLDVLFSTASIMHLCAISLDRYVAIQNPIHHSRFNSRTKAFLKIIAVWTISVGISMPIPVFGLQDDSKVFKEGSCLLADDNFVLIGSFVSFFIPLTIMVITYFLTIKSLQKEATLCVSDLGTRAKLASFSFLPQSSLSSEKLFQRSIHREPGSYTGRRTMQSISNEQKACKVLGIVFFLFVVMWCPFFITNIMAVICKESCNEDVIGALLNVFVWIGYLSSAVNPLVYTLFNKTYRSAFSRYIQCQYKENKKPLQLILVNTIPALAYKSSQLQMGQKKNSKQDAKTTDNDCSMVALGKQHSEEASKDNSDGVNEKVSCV
Protocol: Determination of the effect of the compounds of the present invention on calcium ion mobility in cells stably expressing 5-HT2A receptors
To determine the inhibitory effect of the compounds on 5-HT2A receptor.
• 1) Preparation of the buffer: 1 x HBSS, 20 mM HEPES, 2.5 mM probenecid (probenecid was 400 mM stock in 1 M NaOH), 0.1% BSA. Probenecid and BSA were added fresh on the day of the experiment. Experimental buffers include dye buffer and compound dilution buffer. • 2) Cell culture medium: Ham's F-12K + 10% fetal bovine serum + 600 µg/ml hygromycin B + 1* penicillin-streptomycin. Seeding medium: Ham's F-12K + 10% dialysis serum; Assay buffer: 1 x HBSS + 20 mM HEPES; Cell line: Flp-In-CHO-5HT2A stable pool. • 3) The cells were cultured in the complete medium at 37°C, 5% CO2 to 70%-90% confluency. The cells were digested with TrypLE, seeded to the 384-well assay plate at a density of 1 × 10^4 cells/well, and incubated for 16 to 24 hours (at least overnight). • 4) 20X Component A was thawed to room temperature, diluted to 2X working concentration (containing 5mM Probenecid) with the assay buffer, and placed at room temperature for later use. • 5) The cell culture plate was taken out and left to stand at room temperature for 10 min. […] 10 µl of diluted 5HT was add to each experimental well using FLIPR Tetra, and the values were read.
The calcium signal values were determined by FLIPR. The calculated output for each sampling time point in the experiment was the ratio of the 340/510 nm wavelength signals to 380/510 nm wavelength signals. The maximum minus minimum calculation was derived from the ratio signal curve. The percent inhibition rate and ten-point concentration data were fitted to the parametric nonlinear logistic equation by using GraphPad prism to calculate the IC50 values of the compound.

[3] = Pharmacokinetic assay in Balb/c mice (plasma and brain tissue); format: in vivo; conditions: male, mouse, po, p.o. 5 mg/kg; for AUC(0-t): read-out: Area under curve AUC0-t; for Tmax: read-out: Peak time tmax; for Cmax: read-out: Plasma concentration Cmax
Protocol: Balb/c mice were used as test animals. The pharmacokinetic behavior in mouse body (plasma and brain tissue) of the compounds of Examples of the present invention was studied at an oral administration dose of 5 mg/kg.
Compounds of the Examples of the present invention, prepared by the applicant.
Male Balb/c mice (12 mice per group), purchased from Shanghai Jiesijie Laboratory Animal Co., LTD, with Certificate No.: SCXK (Shanghai) 2013-0006 N0.311620400001794.
The test compound was dissolved in 0.5% CMC-Na (1% Tween80) by sonication to formulate a clear solution or homogeneous suspension.
After an overnight fast, male Balb/c mice (12 mice per group) were administered p.o. with the test compound at an administration dose of 5 mg/kg and an administration volume of 10 mL/kg.
0.2 mL of blood was taken from the heart of the mouse before administration and at 1, 2, 4, 8 and 24 hours after administration, and the mice were sacrificed with CO2. The samples were stored in EDTA-K2 tubes, and centrifuged for 6 minutes at 4°C, 6000 rpm to separate the plasma. The plasma samples were stored at -80°C. Whole brain tissue was taken out, weighed, placed in a 2 mL centrifuge tube, and stored at -80°C.
• 1) 160 µL of acetonitrile was added to 40 µL of the plasma sample for precipitation, and then the mixture was centrifuged for 5 to 20 minutes at 3500 × g. • 2) 90 µL of acetonitrile containing internal standard (100 ng/mL) was added to 30 µL of the plasma and brain homogenate sample for precipitation, and then the mixture was centrifuged for 8 minutes at 13000 rpm. • 3) 70 µL of water was added to 70 µL of the treated supernatant and mixed by vortex for 10 minutes. 20 µL of the supernatant was taken to analyze the concentration of the test compound by LC/MS/MS. LC/MS/MS analytical instrument: AB Sciex API 4000 Qtrap.
• Liquid chromatography condition: Shimadzu LC-20AD pump • Chromatographic column: Agilent ZORBAX XDB-C18 (50×2.1 mm, 3.5 µm); Mobile phase: Eluent A was 0.1% formic acid in water, and Eluent B was acetonitrile • Flow rate: 0.4 mL/min • Elution time: 0-4.0 minutes, the eluent is as follows:
The main parameters of pharmacokinetics were calculated by WinNonlin 6.1. Table 17: Experimental results of pharmacokinetic assay in mice

[4] = Solubility of hydrochloride and free base in different media (37°C, 24 hours, HPLC); format: physicochemical; conditions: thermodynamic from solid
Protocol: The glass bottle was shaken overnight on an electrothermal constant temperature shaking tank, and the temperature was set to 37°C. After 24 hours, the sample solution was filtered with a 0.45 µm mixed water fiber filter membrane, and the subsequent filtrate was taken to test its content by HPLC. HPLC detection methods are described in "Stability Study Conditions". Table 24 Solubility of hydrochloride and free base in different pH buffers

SMILES | EC50 [1] [nM] | IC50 [2] [nM] | further results
O=C(NC1CC(CCN2CCN(c3cccc(Cl)c3Cl)CC2)C1)c1ccon1 (stereo not drawn) [Example 17, N-(3-(2-(4-(2,3-Dichlorophenyl)piperazin-1-yl)ethyl)cyclobutyl)isoxazole-3-carboxamide] | 3.1 | 8.92 | –
COC1CN(C(=O)NC2CC(CCN3CCN(c4cccc(Cl)c4Cl)CC3)C2)C1 (stereo not drawn) [Example 5, N-(3-(2-(4-(2,3-Dichlorophenyl)piperazin-1-yl)ethyl)cyclobutyl)-3-methoxyazetidine-1-carboxamide] | 2.4 | 22.1 | –
O=C(NC1CC(CCN2CCN(c3cccc(Cl)c3Cl)CC2)C1)c1cccnc1 (stereo not drawn) [Example 3, N-(3-(2-(4-(2,3-Dichlorophenyl)piperazin-1-yl)ethyl)cyclobutyl)nicotinamide] | 1.2 | 48 | –
O=C(NC1CC(CCN2CCN(c3cccc(Cl)c3Cl)CC2)C1)C1(O)CC1 (stereo not drawn) [Example 6, N-(3-(2-(4-(2,3-Dichlorophenyl)piperazin-1-yl)ethyl)cyclobutyl)-1-hydroxycyclopro pane-1-carboxamide] | 2.9 | 13.1 | AUC(0-t) ([3]; Brain): 1970 ng·h/mL; Tmax ([3]; Brain): 1 h; Cmax ([3]; Brain): 464 ng/mL; AUC(0-t) ([3]; Plasma): 2330 ng·h/mL; AUC(0-inf) ([3]; Plasma, read-out: Area under curve AUC0-∞): 2460 ng·h/mL; MRT ([3]; Plasma, read-out: Average residence time MRT): 2.8 h; half-life ([3]; Plasma, read-out: Half life t1/2 (converted)): 1.9 h; Tmax ([3]; Plasma): 0.5 h; Cmax ([3]; Plasma): 865 ng/mL
O=C(N[C@H]1C[C@H](CCN2CCN(c3cccc(Cl)c3Cl)CC2)C1)c1ncco1 [crystal form B of free base] | – | – | solubility at 24 h ([4]; aqueous buffer, Buffer pH 3): > 1000 µg/mL; solubility at 24 h ([4]; aqueous buffer, Buffer pH 4): > 1000 µg/mL; solubility at 24 h ([4]; aqueous buffer, Buffer pH 5): > 1000 µg/mL; solubility at 24 h ([4]; aqueous buffer, Buffer pH 6): 388 µg/mL (≈ 917 µM); solubility at 24 h ([4]; aqueous buffer, Buffer pH 7): 44 µg/mL (≈ 104 µM); solubility at 24 h ([4]; aqueous buffer, Buffer pH 8): 2 µg/mL (≈ 4.72 µM); solubility at 24 h ([4]; fassgf or other biorelevant, FaSSCoF): > 1000 µg/mL; solubility at 24 h ([4]; fassgf or other biorelevant, FaSSGF): 154 µg/mL (≈ 364 µM); solubility at 24 h ([4]; fassgf or other biorelevant, FeSSCoF): > 1000 µg/mL; solubility at 24 h ([4]; simulated gastric fluid, Buffer pH 1): > 1000 µg/mL; solubility at 24 h ([4]; simulated gastric fluid, Buffer pH 2): > 1000 µg/mL; solubility at 24 h ([4]; FaSSIF): > 1000 µg/mL; solubility at 24 h ([4]; FeSSIF): > 1000 µg/mL; solubility at 24 h ([4]; water, H2O): 125 µg/mL (≈ 295 µM)
COCC(=O)NC1CC(CCN2CCN(c3cccc(Cl)c3Cl)CC2)C1 (stereo not drawn) [Example 2, N-(3-(2-(4-(2,3-Dichlorophenyl)piperazin-1-yl)ethyl)cyclobutyl)-2-methoxyacetamide] | 2.2 | 16.7 | –
N#CC1(C(=O)NC2CC(CCN3CCN(c4cccc(Cl)c4Cl)CC3)C2)CC1 (stereo not drawn) [Example 21, 1-Cyano-N-(3-(2-(4-(2,3-dichlorophenyl)piperazin-1-yl)ethyl)cyclobutyl)cyclopropane-1-carboxamide] | 3.3 | 33.5 | –
O=C(NC1CC(CCN2CCN(c3cccc(Cl)c3Cl)CC2)C1)c1cccc2ncccc12 (stereo not drawn) [Example 19, N-(3-(2-(4-(2,3-Dichlorophenyl)piperazin-1-yl)ethyl)cyclobutyl)quinoline-5-carbox amide] | 1 | 7.37 | –

Continued, in another order:

EC50 [1] [nM] | IC50 [2] [nM] | SMILES | further results
1.7 | 8.06 | O=C(NC1CC(CCN2CCN(c3cccc(Cl)c3Cl)CC2)C1)c1ccno1 (stereo not drawn) [Example 15, N-(3-(2-(4-(2,3-Dichlorophenyl)piperazin-1-yl)ethyl)cyclobutyl)isoxazole-5-carboxamide] | –
3.5 | 8.08 | Cc1ccc(C(=O)NC2CC(CCN3CCN(c4cccc(Cl)c4Cl)CC3)C2)o1 (stereo not drawn) [Example 1, N-(3-(2-(4-(2,3-Dichlorophenyl)piperazin-1-yl)ethyl)cyclobutyl)-5-methylfuran-2-c arboxamide] | –
1.2 | 13.4 | Cc1cc(C(=O)NC2CC(CCN3CCN(c4cccc(Cl)c4Cl)CC3)C2)on1 (stereo not drawn) [Example 14, N-(3-(2-(4-(2,3-Dichlorophenyl)piperazin-1-yl)ethyl)cyclobutyl)-3-methylisoxazole-5-carboxamide] | –
3.4 | 10.9 | Cc1cnoc1C(=O)NC1CC(CCN2CCN(c3cccc(Cl)c3Cl)CC2)C1 (stereo not drawn) [Example 13, N-(3-(2-(4-(2,3-Dichlorophenyl)piperazin-1-yl)ethyl)cyclobutyl)-4-methylisoxazole-5-carboxamide] | –
1.2 | 8.9 | Cc1cc(CC(=O)NC2CC(CCN3CCN(c4cccc(Cl)c4Cl)CC3)C2)on1 (stereo not drawn) [Example 10, N-(3-(2-(4-(2,3-Dichlorophenyl)piperazin-1-yl)ethyl)cyclobutyl)-2-(3-methylisoxazol-5-yl)acetamide] | –
3.9 | 6.4 | Cc1nc(C(=O)NC2CC(CCN3CCN(c4cccc(Cl)c4Cl)CC3)C2)co1 (stereo not drawn) [Example 18, N-(3-(2-(4-(2,3-Dichlorophenyl)piperazin-1-yl)ethyl)cyclobutyl)-2-methyloxazole-4-carboxamide] | –
0.7 | 5.78 | Cc1ncc(C(=O)NC2CC(CCN3CCN(c4cccc(Cl)c4Cl)CC3)C2)o1 (stereo not drawn) [Example 16, N-(3-(2-(4-(2,3-Dichlorophenyl)piperazin-1-yl)ethyl)cyclobutyl)-2-methyloxazole-5-carboxamide] | –
